# Source: US20230146795A1, “ENHANCEMENT OF ANTI-TUMOR ACTIVITY OF SHP2 INHIBITOR PYRIMIDINONE IN COMBINATION WITH NOVEL CANCER MEDICINES IN CANCERS” (TAIHO PHARMACEUTICAL CO., LTD., priority 2020, published 2023)
# Assays:
# Type in all cases: cell-based
# NCI-H358 = assay: Anti-proliferation assay (CellTiter-Glo 2.0), combination index, NCI-H358
# Protocol: (§1) Cell lines were obtained from ATCC or Health Science Research Resources Bank.
# (§2) Each cell lines were collected by ordinary method, then suspended in indicated medium containing 10% fetal bovine serum in table 3. The number of cells seeded per well was set to 500 cells/20 μL. […] The concentration of each anti-cancer reagents set to 8 concentrations including 0 nM. After adding the medicine to the cells, the cells were further incubated at 37° C. for 3 days under 5% CO2. Cell survival rates were calculated by adding 20 μL of CellTiter-Glo(registered trademark) 2. 0 (Promega) solution to each well, incubating the cells at room temperature for 10 minutes, and then measuring the chemiluminescence intensity of each well using a plate reader (ARVO).
# (§3) A combination index (CI) value at each combined concentration of the medicines was determined.
# MV-4-11 = assay: Anti-proliferation assay (CellTiter-Glo 2.0), combination index, MV-4-11
# Protocol: as §1
# (§4) 384 well culture plate (781086, Greiner Bio-One International) was used for cell survival rate measurement assay. Each cell lines were collected by ordinary method, then suspended in indicated medium containing 10% fetal bovine serum in table 3. The number of cells seeded per well was set to 500 cells/20 μL. After incubation at 37° C. for 24 hours under 5% CO2, Compound 1 and additional compound having an antitumor effect or a vehicle (DMSO) was added to each well by using D300e Digital Dispenser (Tecan). The concentration of Compound 1 was set to 10 concentrations. The concentration of each anti-cancer reagents set to 8 concentrations including 0 nM. After adding the medicine to the cells, the cells were further incubated at 37° C. for 3 days under 5% CO2. Cell survival rates were calculated by adding 20 μL of CellTiter-Glo(registered trademark) 2. 0 (Promega) solution to each well, incubating the cells at room temperature for 10 minutes, and then measuring the chemiluminescence intensity of each well using a plate reader (ARVO).
# as §3
# RMG-I = assay: Anti-proliferation assay (CellTiter-Glo 2.0), combination index, RMG-I; conditions: molar ratio 1:81
# Protocol: as §1, §4, §3
# MKN45 = assay: Anti-proliferation assay (CellTiter-Glo 2.0), combination index, MKN45
# Protocol: as §1, §2, §3
# RT4 = assay: Anti-proliferation assay (CellTiter-Glo 2.0), combination index, RT4
# Protocol: as §1, §2, §3
# [1] = Compound 1 41.2 nmol/L + Palbociclib 1110 nmol/L, molar ratio 1:27
# [2] = Compound 1 123 nmol/L + Palbociclib 3330 nmol/L, molar ratio 1:27
# [3] = Compound 1 370 nmol/L + Palbociclib 10000 nmol/L, molar ratio 1:27
# [4] = Compound 1 1.52 nmol/L + Palbociclib 123 nmol/L, molar ratio 1:81
# [5] = Compound 1 13.7 nmol/L + Palbociclib 1110 nmol/L, molar ratio 1:81
# [6] = Compound 1 41.2 nmol/L + Palbociclib 3330 nmol/L, molar ratio 1:81
# [7] = Compound 1 123 nmol/L + Palbociclib 10000 nmol/L, molar ratio 1:81
# [8] = Compound 1 13.7 nmol/L + Palbociclib 1110 nmol/L
# [9] = Compound 1 41.2 nmol/L + Palbociclib 3330 nmol/L
# [10] = Compound 1 123 nmol/L + Palbociclib 10000 nmol/L
# [11] = Compound 1 41.2 + combination drug 13.7 nmol/L (1:0.3)
# [12] = Compound 1 370 + combination drug 123 nmol/L (1:0.3)
# [13] = Compound 1 1110 + combination drug 370 nmol/L (1:0.3)
# [14] = Compound 1 3330 + combination drug 1110 nmol/L (1:0.3)
# [15] = Compound 1 123 + combination drug 10000 nmol/L (1:81)
# [16] = Compound 1 41.2 + combination drug 370 nmol/L (1:9)
# [17] = Compound 1 123 + combination drug 1110 nmol/L (1:9)
# [18] = Compound 1 370 + combination drug 3330 nmol/L (1:9)
# [19] = Compound 1 4.57 + combination drug 370 nmol/L (1:81)
# [20] = Compound 1 13.7 + combination drug 1110 nmol/L (1:81)
# [21] = Compound 1 41.2 + combination drug 3330 nmol/L (1:81)
# [22] = Compound 1 13.7 + combination drug 13.7 nmol/L (1:1)
# [23] = Compound 1 41.2 + combination drug 41.2 nmol/L (1:1)
# [24] = Compound 1 123 + combination drug 123 nmol/L (1:1)
# [25] = Compound 1 41.2 + combination drug 1110 nmol/L (1:27)
# [26] = Compound 1 370 + combination drug 10000 nmol/L (1:27)
# [27] = Compound 1 4.57 + combination drug 123 nmol/L (1:27)
# [28] = Compound 1 13.7 + combination drug 370 nmol/L (1:27)
# [29] = Compound 1 123 + combination drug 3330 nmol/L (1:27)
smiles,measurement,setting,value
CC(=O)c1c(C)c2cnc(Nc3ccc(N4CCNCC4)cn3)nc2n(C2CCCC2)c1=O [Palbociclib],CI,NCI-H358; [1],0.774
same,Fa,NCI-H358; [1],0.1141
same,CI,NCI-H358; [2],0.695
same,Fa,NCI-H358; [2],0.2564
same,CI,NCI-H358; [3],0.833
same,Fa,NCI-H358; [3],0.4277
same,CI,MV-4-11; [4],0.827
same,Fa,MV-4-11; [4],0.1698
same,CI,MV-4-11; [5],0.520
same,Fa,MV-4-11; [5],0.6523
same,CI,MV-4-11; [6],0.699
same,Fa,MV-4-11; [6],0.7944
same,CI,MV-4-11; [7],0.565
same,Fa,MV-4-11; [7],0.9297
same,Description,"MV-4-11; combination effect, Compound 1 + Palbociclib, molar ratio 1:81",Synergy (0.3-0.7)
same,CI,RMG-I; [8],0.411
same,Fa,RMG-I; [8],0.3192
same,CI,RMG-I; [9],0.271
same,Fa,RMG-I; [9],0.4189
same,CI,RMG-I; [10],0.225
same,Fa,RMG-I; [10],0.5120
CNC(=O)c1cc(Oc2ccc(NC(=O)Nc3ccc(Cl)c(C(F)(F)F)c3)cc2)ccn1 [Sorafenib],CI,MV-4-11; [11],0.116
same,Fa,MV-4-11; [11],0.9439
same,Fa,MV-4-11; Compound 1 123 + combination drug 41.2 nmol/L (1:0.3),0.9578
same,CI,MV-4-11; [12],0.301
same,Fa,MV-4-11; [12],0.9643
same,CI,MV-4-11; [13],0.759
same,Fa,MV-4-11; [13],0.9665
same,CI,MV-4-11; [14],0.865
same,Fa,MV-4-11; [14],0.9766
CCN(CC)CCNC(=O)c1c(C)[nH]c(/C=C2\C(=O)Nc3ccc(F)cc32)c1C [Sunitinib],CI,MKN45; [15],0.818
same,Fa,MKN45; [15],0.8052
same,CI,NCI-H358; [16],0.502
same,Fa,NCI-H358; [16],0.4562
same,CI,NCI-H358; [17],0.747
same,Fa,NCI-H358; [17],0.7002
same,CI,NCI-H358; [18],0.612
same,Fa,NCI-H358; [18],0.9541
same,Description (combinatory effect by CI),NCI-H358; Compound 1:combination drug molar ratio 1:9,Synergy (0.3-0.7)
same,CI,RT4; [19],0.687
same,Fa,RT4; [19],0.1808
same,CI,RT4; [20],0.392
same,Fa,RT4; [20],0.4883
same,CI,RT4; [21],0.624
same,Fa,RT4; [21],0.6270
same,Description (combinatory effect by CI),RT4; Compound 1:combination drug molar ratio 1:81,Synergy (0.3-0.7)
same,CI,MV-4-11; [22],0.262
same,Fa,MV-4-11; [22],0.9463
same,CI,MV-4-11; [23],0.327
same,Fa,MV-4-11; [23],0.9651
same,CI,MV-4-11; [24],0.902
same,Fa,MV-4-11; [24],0.9666
CCc1cc2c(cc1N1CCC(N3CCOCC3)CC1)C(C)(C)c1[nH]c3cc(C#N)ccc3c1C2=O [Alectinib],CI,MKN45; [25],0.905
same,Fa,MKN45; [25],0.4310
same,CI,MKN45; [26],0.542
same,Fa,MKN45; [26],0.9801
same,Description (combinatory effect by CI),MKN45; Compound 1:combination drug molar ratio 1:27,Synergy (0.3-0.7)
same,CI,MV-4-11; [27],0.829
same,Fa,MV-4-11; [27],0.5762
same,CI,MV-4-11; [28],0.484
same,Fa,MV-4-11; [28],0.8852
same,CI,MV-4-11; [25],0.609
same,Fa,MV-4-11; [25],0.9534
same,CI,MV-4-11; [29],0.187
same,Fa,MV-4-11; [29],0.9967
same,CI,MV-4-11; [26],0.631
same,Fa,MV-4-11; [26],0.9962
